From patent US20180353461A1, “USE OF CANNABINOIDS AS CERAMIDE-GENERATING ANTICANCER AGENTS IN TUMORS OF THE HEMATOPOIETIC AND LYMPHOID TISSUES” (priority 2014, published 2018)

Columns and labels:
Format in all cases: cell-based, human
[1] = system: MM cell lines MM1.S, MM1.R, RPMI-8226 (RPMI) and U266; assay: Cell viability of MM cell lines (MTT / WST-8 assay); settings: 18 h; for cell viability of all MM cell lines tested as compared to untreated control cells: WIN-55 0.5-50 uM, JWH-133 0.05-1 mM
Text: (§1) Human multiple myeloma cell lines MM1.S, MM1.R, RPMI-8226 (RPMI) and U266 were purchased from American Type Culture Collection [(ATCC), LGC Standards, Manassas, USA]. Human primary cells were obtained from MM patients' bone marrow (BM) and healthy donors' peripheral blood (PB). PB samples were collected from buffy coats and leukapheresis products, previously mobilized with granulocyte colony stimulating factor (G-CSF). Hematopoietic progenitor cells (CD34+) were isolated from leukaphesesis samples, and B (CD19+) and T (CD3+) lymphocytes from buffy coats by positive immunomagnetic separation in the AutoMACS pro separator (Miltenyi Biotec, Bergisch Gladbach, Germany). For this purpose CD34-, CD19- and CD3-MACS microbead Human Kit (Miltenyi Biotec, Bergisch Gladbach, Germany). The purity of all isolated cells was higher than 95% in all cases. BM samples were obtained from five MM patients. In all cases, BM plasma cell infiltration was greater than 30%. The different cell subpopuplations from MM patients BM were not separated, but they were identified by flow cytometry using a suitable combination of antibodies: anti-CD64-FITC, anti-CD34-PE, anti-CD56-APC, anti-CD38-APC-H7, and anti-CD45-Pacific Blue (BD Biosciences, San Jose, Calif.).
Except if otherwise indicated, for the viability assays primary cells were incubated 18 hours, with vehicle (with <0.15% DMSO) or cannabinoid. Meanwhile, the time course assays cells were performed at 0, 2, 6, 18 and 24 h. For the analysis of SPT activity, cells were co-incubated for the first 6 hours with the SPT inhibitor, myriocin, and the cannabinoid, WIN-55 or JWH-133.
The working concentrations of cannabinoids were determined by dose-response curves (data not shown) and selected within the linear range between observed safe and hazardous levels. […]
Cell viability of cell lines and CD34+, CD19+ and CD3+ cells was measured using the Cell Counting Kit-8 (Dojindo Molecular Technologies, Gaithersburg, Md.). This assay is based on the reduction of salt WST-8 by a mitochondrial dehydrogenase in viable cells, resulting in a colored formazan product that can be measured spectrometrically at 450 nm. […] After treatment, 10 ul salt WST-8 [2-(4-lodophenyl)-3-(4-nitrophenyl)-5-(2,4-disulfophenyl)-2H-tetrazolium] was added to each well and incubated for an additional 2 h at 37° C., and then the absorbance of generated formazan was measured in a plate reader Multiskan™ Go Microplate (Thermo Fisher Scientific, Waltham, Mass., USA).
Firstly, we assessed the effect of cannabinoids WIN-55 and JWH-133 on cell viability. To this end, the cells were treated with increasing concentrations of cannabinoids, WIN-55 (0.5-50 uM) and JWH-133 (0.05-1 mM), for 18, 48 and 96 hours, and viability was analyzed by MTT assays and flow cytometry. […]

lymphocytes = assay: Viability of normal residual lymphocytes in bone marrow samples of MM patients (flow cytometry); settings: for viability of lymphocytes: all doses except the highest dose tested; for dose at which lymphocytes were affected (highest dose tested): bone marrow of MM patients
Text: as §1
Further, cell viability of bone marrow cell populations from patients was assessed by flow cytometry using 7-amino-actinomycin D [(7-AAD), BD Biosciences] together with a combination of monoclonal antibodies against myeloma-associated antigens (anti-CD56-APC, anti-CD45-Pacific Blue, and anti-CD38-APC-H7 [BD Biosciences]) and antibodies to discriminate the granulomonocytic (anti-CD64-FITC) and lymphocytic (anti-CD45-Pacific Blue) populations. Cells were incubated for 15 minutes at room temperature in the dark with suitable antibodies and 7-AAD, and after washing a total of 100 000 cells were acquired on FACSCanto II flow cytometer (BD Biosciences). Fluorescent intensity was quantified and analyzed using Infinicyt™ Software (Cytognos, Salamanca, Spain). Additionally, cell viability of MM cell lines and the peripheral blood CD34+, CD3+ and CD19+ cell populations from healthy donors was also analyzed by flow cytometry using 7-AAD, with the same protocol above described.
Once determined the antiproliferative effect of cannabinoids on tumor cells, both primary and cell lines, our aim was to test whether or not these drugs could also affect the viability of the counterpart normal cells, both normal residual populations from bone marrow samples obtained from MM patients as well as hematopoietic stem cells (CD34+) from healthy donors. […] Granulocytes and lymphocytes, were also unaffected by both cannabinoids, except for the lymphocytes at the highest doses tested, 50 uM for WIN-55 and 1 mM for JWH-133 (FIG. 2a,b).

B-cells (CD19+) = assay: Cell viability of B-cells (MTT)
[2] = system: CD34+ hematopoietic stem cells; assay: Cell viability of CD34+ hematopoietic stem cells, Example 2 (MTT)
Text: Human primary cells were obtained from LMA patients' bone marrow (BM) and healthy donors' peripheral blood (PB). Hematopoietic progenitor cells (CD34+) were isolated from leukaphesesis samples, and B (CD19+) and T (CD3+) lymphocytes from buffy coats by positive immunomagnetic separation in the AutoMACS pro separator (Miltenyi Biotec, Bergisch Gladbach, Germany). For this purpose CD34-, CD19- and CD3-MACS microbead Human Kit (Miltenyi Biotec, Bergisch Gladbach, Germany).
Cells lines, CD34+ cells and blast were cultured in 96-well plates (5×10e5 cells per well) with the addition of the indicated concentrations of WIN 55,212-2 or JWH-133 in DMSO or with the solvent alone in triplicate. Also we add myoricin together the cannabinoid WIN-55 to see if this effect reversed. Cell viability was determined by the WST-1 [2-(4-lodophenyl)-3-(4-nitrophenyl)-5-(2,4-disulfophenyl)-2H-tetrazolium] assay as per the manufacturer's instructions (Dojindo Molecular Technologies). Optical densities were measured at 450 nm using a plate reader Multiskan™ Go Microplate (Thermo Fisher Scientific, Waltham, Mass., USA).
Stem cells were treated with WIN-55 or JWH-133 and cell viability was analyzed using MTT assay.

SMILES	sensitivity pattern of the MM cell lines [1]	cell viability of all MM cell lines tested as compared to untreated control cells [1]	viability of lymphocytes (lymphocytes)	dose at which lymphocytes were affected (highest dose tested) (lymphocytes)	viability of B-cells (B-cells (CD19+))	cell viability of CD34+ hematopoietic stem cells [2]
CCCC(C)(C)c1ccc2c(c1)OC(C)(C)[C@@H]1CC=C(C)C[C@@H]21 [JWH-133, (6aR,10aR)-3-(1,1-Dimethylbutyl)-6a,7,10,10a-tetrahydro-6,6,9-trimethyl-6H-dibenzo [b,d] pyran]	decreasing from MM1.R, RPMI, MM1.S to U266	significantly reduced	unaffected	1 mM	decreased viability	remains unaffected
CS(=O)(=O)O.Cc1c(C(=O)c2cccc3ccccc23)c2cccc3c2n1[C@H](CN1CCOCC1)CO3 [WIN-55, (R)-(+)-[2,3-dihydro-5-methyl-3-(4-morpholinylmethyl)-pyrrolo-[1,2,3]-1,4-benzoxazin-6-yl]-1-naphthalenylmethanone mesylate]	MM1R and RPMI were the most sensitive	significantly reduced	unaffected	0.05 mM	decreased viability	remains unaffected
